Among the data in US8859574B2 (IRM LLC, priority 2008, dated 2014) are IC50 values, retold here.

The target of this assay is T1, IGF-1R Ba/F3 (Homo sapiens, UniProt P08069).
T1 construct: fused on or other part: TEL- (or BCR-) IGF-1R in Ba/F3: the kinase part holds the site
T1 sequence (P08069 999-1274 limits assumed): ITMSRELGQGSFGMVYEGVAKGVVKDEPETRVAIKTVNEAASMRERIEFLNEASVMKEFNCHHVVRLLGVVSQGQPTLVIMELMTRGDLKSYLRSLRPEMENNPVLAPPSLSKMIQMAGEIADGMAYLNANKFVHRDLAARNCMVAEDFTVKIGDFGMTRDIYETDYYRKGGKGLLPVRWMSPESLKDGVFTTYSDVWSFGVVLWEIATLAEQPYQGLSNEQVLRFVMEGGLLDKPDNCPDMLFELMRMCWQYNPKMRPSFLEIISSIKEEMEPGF
The assay can be described thus: Ba/F3 Cell Viability Inhibition Assay (IGF-1R Ba/F3). The class given is cell-based, murine. As to conditions: Tel-TK transformed Ba/F3 cells, 48 hours, Britelite luminescence. Summed up: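 A 48 h compound treatment at 37 °C (3750 cells/well) was followed by Britelite luminescence to measure viability. Cells were Ba/F3 pro-B cells, IL-3-independent via TEL-fused IGF-1R kinase transduction. A logistic fit gave IC50 as 50% viability relative to DMSO control.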
Broadly, the IC50 is the concentration that inhibits the measured activity by half. Consider `Cc1cc(Nc2nc(Nc3cc(C)c(C4CCN([C@H]5CCN(S(C)(=O)=O)C5)CC4)cc3F)ncc2Cl)n[nH]1` [Compound 313, (S)-5-chloro-N2-(2-fluoro-5-methyl-4-(1-(1-(methylsulfonyl)pyrrolidin-3-yl)piperidin-4-yl)phenyl)-N4-(5-methyl-1H-pyrazol-3-yl)pyrimidine-2,4-diamine], for which the IC50 was determined as 30 nM.
Regarding `Cc1cc(Nc2nc(Nc3cc(C)c(C4CCN(S(=O)(=O)c5cccnc5)CC4)cc3F)ncc2Cl)n[nH]1` [Compound 65, 5-chloro-N2-(2-fluoro-5-methyl-4-(1-(pyridin-3-ylsulfonyl)piperidin-4-yl)phenyl)-N4-(5-methyl-1H-pyrazol-3-yl)pyrimidine-2,4-diamine], the IC50 was 76 nM.
In the case of `CNC(=O)CN1CCCCC1c1cc(C)c(Nc2ncc(Cl)c(Nc3cc(C)[nH]n3)n2)cc1C` (stereo not drawn) [Compound 182, 2-(2-(4-(5-chloro-4-(5-methyl-1H-pyrazol-3-ylamino)pyrimidin-2-ylamino)-2,5-dimethylphenyl)piperidin-1-yl)-N-methylacetamide] it was 19 nM; in that of `CNC(=O)CN1CCC(c2cc(F)c(Nc3ncc(Cl)c(Nc4cc(C)[nH]n4)n3)cc2C)CC1` [Compound 42, 2-(4-(4-(5-chloro-4-(5-methyl-1H-pyrazol-3-ylamino)pyrimidin-2-ylamino)-5-fluoro-2-methylphenyl)piperidin-1-yl)-N-methylacetamide], 19 nM.
To `Cc1cc(Nc2nc(Nc3cc(C)c(C4CCN(C5CCC(O)CC5)CC4)cc3F)ncc2Cl)n[nH]1` (stereo not drawn) [Compound 298, 4-(4-(4-(5-chloro-4-(5-methyl-1H-pyrazol-3-ylamino)pyrimidin-2-ylamino)-5-fluoro-2-methylphenyl)piperidin-1-yl)cyclohexanol] belongs 26 nM.
Regarding `Cc1cc(Nc2nc(Nc3cc(C(F)(F)F)c(N4CCOCC4)cc3F)ncc2Cl)n[nH]1` [Compound 153, 5-chloro-N2-(2-fluoro-4-morpholino-5-(trifluoromethyl)phenyl)-N4-(5-methyl-1H-pyrazol-3-yl)pyrimidine-2,4-diamine], the midpoint of inhibition, the IC50, lay at 91 nM. This IC50 is about 3.5-fold higher than that of the compound before.
With `Cc1cc(Nc2nc(Nc3cc(C)c(C4CCN(C5CC5)CC4)cc3C)ncc2Cl)n[nH]1` [Compound 250, 5-chloro-N2-(4-(1-cyclopropylpiperidin-4-yl)-2,5-dimethylphenyl)-N4-(5-methyl-1H-pyrazol-3-yl)pyrimidine-2,4-diamine], the IC50 is 25 nM.
The compound `Cc1cc(Nc2nc(Nc3cc(C)c(C4CCNCC4)cc3C)ncc2Cl)n[nH]1` [Compound 256, 5-chloro-N2-(2,5-dimethyl-4-(piperidin-4-yl)phenyl)-N4-(5-methyl-1H-pyrazol-3-yl)pyrimidine-2,4-diamine] registered an IC50 of 44 nM.
In turn, `Cc1cc(Nc2nc(Nc3cc(C(F)(F)F)c(N4CCN(C)CC4)cc3C)ncc2Cl)n[nH]1` [Compound 156, 5-chloro-N4-(5-methyl-1H-pyrazol-3-yl)-N2-(2-methyl-4-(4-methylpiperazin-1-yl)-5-(trifluoromethyl)phenyl)pyrimidine-2,4-diamine] yielded an IC50 of 40 nM.
Compound `Cc1cc(Nc2nc(Nc3cc(C)c(C4CCN(C(=O)c5c(C)noc5C)CC4)cc3F)ncc2Cl)n[nH]1` [Compound 137, (4-(4-(5-chloro-4-(5-methyl-1H-pyrazol-3-ylamino)pyrimidin-2-ylamino)-5-fluoro-2-methylphenyl)piperidin-dimethylisoxazol-4-yl)methanone] yielded an IC50 of 18 nM.
Turning to `Cc1cc(Nc2nc(Nc3cc(C)c(C4CCN(C5CCNCC5)CC4)cc3F)ncc2Cl)n[nH]1` [Compound 276, N2-(4-(1,4′-bipiperidin-4-yl)-2-fluoro-5-methylphenyl)-5-chloro-N4-(5-methyl-1H-pyrazol-3-yl)pyrimidine-2,4-diamine], the IC50 was found to be 437 nM.
`Cc1cc(Nc2nc(Nc3cc(C)c(C4CCN(C(C)C(N)=O)CC4)cc3F)ncc2Cl)n[nH]1` (stereo not drawn) [Compound 49, 2-(4-(4-(5-chloro-4-(5-methyl-1H-pyrazol-3-ylamino)pyrimidin-2-ylamino)-5-fluoro-2-methylphenyl)piperidin-1-yl)propanamide] yielded an IC50 of 15 nM. This IC50 lies about 29-fold lower than the previous one.
In the case of `Cc1cc(Nc2nc(Nc3cc(C)c(C4CCN(C5CCSCC5)CC4)cc3C)ncc2Cl)n[nH]1` [Compound 174, 5-chloro-N2-(2,5-dimethyl-4-(1-(tetrahydro-2H-thiopyran-4-yl)piperidin-4-yl)phenyl)-N4-(5-methyl-1H-pyrazol-3-yl)pyrimidine-2,4-diamine] it was 8 nM; in that of `Cc1cc(Nc2nc(Nc3cc(C)c(C4CCN(CCS(N)(=O)=O)CC4)cc3F)ncc2Cl)n[nH]1` [Compound 59, 2-(4-(4-(5-chloro-4-(5-methyl-1H-pyrazol-3-ylamino)pyrimidin-2-ylamino)-5-fluoro-2-methylphenyl)piperidin-1-yl)ethanesulfonamide], 38 nM; in that of `Cc1cc(Nc2nc(Nc3cc(C)c(C4CCN(C(=O)CN5CCC5)CC4)cc3F)ncc2Cl)n[nH]1` [Compound 98, 2-(azetidin-1-yl)-1-(4-(4-(5-chloro-4-(5-methyl-1H-pyrazol-3-ylamino)pyrimidin-2-ylamino)-5-fluoro-2-methylphenyl)piperidin-1-yl)ethanone], 64 nM.
To `CNC(=O)[C@H](C)N1CCC(c2cc(C)c(Nc3ncc(Cl)c(Nc4cc(C)[nH]n4)n3)cc2C)CC1` [Compound 168, (S)-2-(4-(4-(5-chloro-4-(5-methyl-1H-pyrazol-3-ylamino)pyrimidin-2-ylamino)-2,5-dimethylphenyl)piperidin-1-yl)-N-methylpropanamide] belongs 10 nM; to `Cc1cc(Nc2nc(Nc3cc(C)c(C4CCN(C(=O)n5cnnn5)CC4)cc3F)ncc2Cl)n[nH]1` [Compound 140, (4-(4-(5-chloro-4-(5-methyl-1H-pyrazol-3-ylamino)pyrimidin-2-ylamino)-5-fluoro-2-methylphenyl)piperidin-1-yl)(1H-tetrazol-1-yl)methanone], 139 nM.
Regarding `Cc1cc(Nc2nc(Nc3cc(C)c(C4CCN(C(=O)[C@H]5CCCN5C)CC4)cc3F)ncc2Cl)n[nH]1` [Compound 134, (R)-(4-(4-(5-chloro-4-(5-methyl-1H-pyrazol-3-ylamino)pyrimidin-2-ylamino)-5-fluoro-2-methylphenyl)piperidin-1-yl)(1-methylpyrrolidin-2-yl)methanone], half-maximal inhibition (IC50) required 21 nM.
In the case of `Cc1cc(Nc2nc(Nc3cc(C)c(C4CCN(S(=O)(=O)CCCN5CCC5)CC4)cc3C)ncc2Cl)n[nH]1` [Compound 195, N2-(4-(1-(3-(azetidin-1-yl)propylsulfonyl)piperidin-4-yl)-2,5-dimethylphenyl)-5-chloro-N4-(5-methyl-1H-pyrazol-3-yl)pyrimidine-2,4-diamine] it was 27 nM; in that of `Cc1cc(C2CCN(C(=O)CN(C)C)CC2)c(C)cc1Nc1ncc(Cl)c(Nc2cc(C3CC3)[nH]n2)n1` [Compound 186, 1-(4-(4-(5-chloro-4-(5-cyclopropyl-1H-pyrazol-3-ylamino)pyrimidin-2-ylamino)-2,5-dimethylphenyl)piperidin-1-yl)-2-(dimethylamino)ethanone], 12 nM.
Take `Cc1cc(Nc2nc(Nc3cc(C)c(C4CCN(CCCS(=O)(=O)N5CCCC5)CC4)cc3F)ncc2Cl)n[nH]1` [Compound 244, 5-chloro-N2-(2-fluoro-5-methyl-4-(1-(3-(pyrrolidin-1-ylsulfonyl)propyl)piperidin-4-yl)phenyl)-N4-(5-methyl-1H-pyrazol-3-yl)pyrimidine-2,4-diamine]: the IC50 amounted to 84 nM.
